Measured values reported in ChEMBL document CHEMBL5257109, “Development of actein derivatives as potent anti-triple negative breast cancer agents” (Bioorg Med Chem Lett, 2023).
pIC50: −log10 of the molar value. Active and inactive are the calls of the source. The calls are words filed in the database; no cut-off is given here.

Key:
MDA-MB-231 [1] = assay: Antiproliferative activity against human MDA-MB-231 cells assessed as inhibition of cell growth incubated for 36 hrs by SRB assay; assay type: functional, cell-based; details: MDA-MB-231, 36 h
HCC1806 [2] = assay: Induction of cell cycle arrest in human HCC1806 cells assessed as increase in S phase cells at 10 uM incubated for 36 hrs by PI staining based flow cytometric analysis; assay type: functional
HCC1806 [3] = assay: Induction of cell death in human HCC1806 cells assessed as activation of p38 protein incubated for 36 hrs by Western blot analysis; assay type: functional, cell-based; details: dose 10-20 µM
HCC1806 [4] = assay: Induction of cell death in human HCC1806 cells assessed as increase in p21 expression incubated for 36 hrs by Western blot analysis; assay type: functional, cell-based; details: dose 10-20 µM
HCC1806 [5] = assay: Antiproliferative activity against human HCC1806 cells assessed as inhibition of cell growth at 20 uM incubated for 36 hrs by SRB assay relative to control; assay type: functional
HCC1806 [6] = assay: Antiproliferative activity against human HCC1806 cells assessed as inhibition of cell growth incubated for 36 hrs by SRB assay; assay type: functional, cell-based; details: HCC1806, 36 h
MDA-MB-231 [7] = assay: Antiproliferative activity against human MDA-MB-231 cells assessed as inhibition of cell growth at 20 uM incubated for 36 hrs by SRB assay relative to control; assay type: functional
HCC1806 [8] = assay: Induction of cell cycle arrest in human HCC1806 cells assessed as decrease in G2/M phase cells at 10 uM incubated for 36 hrs by PI staining based flow cytometric analysis; assay type: functional
MDA-MB-231 [9] = assay: Antiproliferative activity against human MDA-MB-231 cells assessed as inhibition of cell growth; assay type: functional, cell-based
MDA-MB-231 [10] = assay: Antiproliferative activity against human MDA-MB-231 cells overexpressing ERnegative and […] assessed as inhibition of cell growth incubated for 96 hrs by coulter counter analysis; assay type: functional, cell-based; details: MDA-MB-231, 96 h
MCF7 = assay: Antiproliferative activity against human MCF7 cells assessed as inhibition of cell growth incubated for 96 hrs by coulter counter analysis; assay type: functional, cell-based; details: MCF7, 96 h

Row | Compound | pIC50 (MDA-MB-231 [1]) | Activity (HCC1806 [2]) | Activity (HCC1806 [3]) | Activity (HCC1806 [4]) | inhibition at 20 µM (HCC1806 [5]) [%] | pIC50 (HCC1806 [6]) | inhibition at 20 µM (MDA-MB-231 [7]) [%] | Activity (HCC1806 [8]) | pIC50 (MDA-MB-231 [9]) | pIC50 (MDA-MB-231 [10]) | pIC50 (MCF7)
1 | CC(=O)O[C@@H]1[C@@H](OC(C)=O)[C@H](O[C@H]2CC[C@]34C[C@]35C[C@@H](OC(C)=O)[C@]3(C)[C@H]6[C@H](C)C[C@]7(O[C@@H](OC(=O)CCC(=O)O)[C@@]8(C)O[C@@H]78)O[C@H]6C[C@@]3(C)[C@@H]5CC[C@H]4C2(C)C)OC[C@H]1OC(C)=O | 5.04 | Active | Dose-Dependent Effect | Dose-Dependent Effect | > 50 | 5.56 | > 50 | Active | – | – | –
2 | CC(=O)O[C@@H]1C[C@@]23C[C@@]24CC[C@H](O[C@@H]2OC[C@@H](O)[C@H](O)[C@H]2O)C(C)(C)[C@@H]4CC[C@H]3[C@]2(C)C[C@@H]3O[C@]4(C[C@@H](C)[C@@H]3[C@@]12C)O[C@H](O)[C@@]1(C)O[C@@H]41 [ACTEIN] | < 4.70 | – | – | – | – | < 4.70 | – | – | 4.22 | 4.13 | 4.85
